Results from ChEMBL document CHEMBL6087391, “Novel bibenzyl compound 8Ae induces apoptosis and inhibits glycolysis by detaching hexokinase 2 from mitochondria in A549 cells” (Bioorg Med Chem, 2024).
Activity calls are given as the source filed them. The calls are words filed in the database; no cut-off is given here.

Tests used:
A549 [1] = test: Inhibition of glycolysis in human A549 cells assessed as downregulation of GLUT1 expression at 1 to 10 uM incubated for 48 hrs by Western blotting analysis; format: functional, cell-based; settings: dose 1-10 µM
A549 [2] = test: Inhibition of glycolysis in human A549 cells assessed as reduction in glucose uptake incubated for 48 hrs by Amplex red dye based spectrophotometry; format: functional, cell-based
A549 [3] = test: Induction of apoptosis in human A549 cells assessed as early apoptotic cells at 5 uM incubated for 48 hrs by Annexin V-FITC/PI staining based flow cytometry; format: functional
A549 [4] = test: Inhibition of glycolysis in human A549 cells assessed as downregulation of GLUT1 expression in cytosol fraction at 1 to 10 uM incubated for 48 hrs by Western blotting analysis; format: functional, cell-based; settings: dose 1-10 µM
A549 [5] = test: Inhibition of glycolysis in human A549 cells assessed as downregulation of HK2 expression in cytosol fraction at 1 to 10 uM incubated for 48 hrs by Western blotting analysis; format: functional, cell-based; settings: dose 1-10 µM
A549 [6] = test: Inhibition of glycolysis in human A549 cells assessed as reduction in lactate production at 10 uM incubated for 48 hrs by trypan blue staining based spectrophotometry; format: functional
A549 [7] = test: Inhibition of glycolysis in human A549 cells assessed as downregulation of HK2 expression incubated for 48 hrs by Western blotting analysis; format: functional, cell-based
A549 [8] = test: Induction of apoptosis in human A549 cells assessed as upregulation of Bax expression at 1 to 10 uM incubated for 48 hrs by Western blotting analysis; format: functional, cell-based; settings: dose 1-10 µM
A549 [9] = test: Antiproliferative activity against human A549 cells assessed as inhibition of cell growth incubated for 48 hrs by MTT assay; format: functional, cell-based; settings: A549, 48 h
A549 [10] = test: Induction of apoptosis in human A549 cells assessed as downregulation of Cyt C expression in mitochondrial fraction at 1 to 10 uM incubated for 48 hrs by Western blotting analysis; format: functional, cell-based; settings: dose 1-10 µM
A549 [11] = test: Induction of apoptosis in human A549 cells assessed as late apoptotic cells at 5 uM incubated for 48 hrs by Annexin V-FITC/PI staining based flow cytometry; format: functional
A549 [12] = test: Induction of apoptosis in human A549 cells assessed as increase in ratio of Bax/Bcl-2 at 1 to 10 uM incubated for 48 hrs by Western blotting analysis; format: functional, cell-based; settings: dose 1-10 µM
BEAS-2B = test: Antiproliferative activity against human BEAS-2B cells assessed as inhibition of cell growth incubated for 48 hrs by MTT assay; format: toxicity, cell-based
A549 [13] = test: Antiproliferative activity against human A549 cells assessed as reduction in cell viability incubated for 48 hrs by MTT assay; format: functional, cell-based
Mitochondrial membrane = test: Induction of mitochondrial membrane potential loss in human A549 cells at 1 to 10 uM incubated for 48 hrs by JC-1 dye based fluorescence microscopic analysis; format: cell membranes; settings: dose 1-10 µM
A549 [14] = test: Induction of apoptosis in human A549 cells assessed as downregulation of AKT phosphorylation at 1 to 10 uM incubated for 48 hrs by Western blotting analysis; format: functional, cell-based; settings: dose 1-10 µM
A549 [15] = test: Induction of apoptosis in human A549 cells assessed as downregulation of Bcl-2 expression at 1 to 10 uM incubated for 48 hrs by Western blotting analysis; format: functional, cell-based; settings: dose 1-10 µM
A549 [16] = test: Induction of mitochondria mediated apoptosis in human A549 cells assessed as reduction in HK2 level at 1 to 10 uM incubated for 48 hrs by immunofluorescence confocal microscopic analysis; format: functional, cell-based; settings: dose 1-10 µM
A549 [17] = test: Induction of apoptosis in human A549 cells assessed as late apoptotic cells at 10 uM incubated for 48 hrs by Annexin V-FITC/PI staining based flow cytometry; format: functional
A549 [18] = test: Induction of apoptosis in human A549 cells assessed as early apoptotic cells at 10 uM incubated for 48 hrs by Annexin V-FITC/PI staining based flow cytometry; format: functional
A549 [19] = test: Inhibition of glycolysis in human A549 cells assessed as reduction in lactate production at 1 uM incubated for 48 hrs by trypan blue staining based spectrophotometry; format: functional
A549 [20] = test: Inhibition of glycolysis in human A549 cells assessed as reduction in lactate production at 5 uM incubated for 48 hrs by trypan blue staining based spectrophotometry; format: functional
A549 [21] = test: Inhibition of glycolysis in human A549 cells assessed as decrease in HK2 activity incubated for 48 hrs by spectrophotometric assay; format: functional, cell-based; settings: A549, 48 h
A549 [22] = test: Induction of apoptosis in human A549 cells assessed as early apoptotic cells at 1 uM incubated for 48 hrs by Annexin V-FITC/PI staining based flow cytometry; format: functional
A549 [23] = test: Inhibition of glycolysis in human A549 cells assessed as downregulation of HK2 expression in mitochondrial fraction at 1 to 10 uM incubated for 48 hrs by Western blotting analysis; format: functional, cell-based; settings: dose 1-10 µM
A549 [24] = test: Induction of apoptosis in human A549 cells assessed as upregulation of Cyt C expression in cytosol fraction at 1 to 10 uM incubated for 48 hrs by Western blotting analysis; format: functional, cell-based; settings: dose 1-10 µM
A549 [25] = test: Induction of apoptosis in human A549 cells assessed as downregulation of AKT expression at 1 to 10 uM incubated for 48 hrs by Western blotting analysis; format: functional, cell-based; settings: dose 1-10 µM
A549 [26] = test: Induction of apoptosis in human A549 cells assessed as late apoptotic cells at 1 uM incubated for 48 hrs by Annexin V-FITC/PI staining based flow cytometry; format: functional
MDA-MB-231 = test: Antiproliferative activity against human MDA-MB-231 cells assessed as inhibition of cell growth incubated for 48 hrs by MTT assay; format: functional, cell-based; settings: MDA-MB-231, 48 h
A549 [27] = test: Induction of mitochondria mediated apoptosis in human A549 cells assessed as reduction in HK2 level at […] incubated for 48 hrs by immunofluorescence confocal microscopic analysis; format: functional, cell-based

COc1cc(CCc2ccccc2Cl)cc(OC)c1O
inhibition (A549 [1]): Active
inhibition (A549 [2]): Dose-dependent-effect
Activity (A549 [3]): 30.9%
inhibition (A549 [4]): inactive
inhibition (A549 [5]): inactive
Activity (A549 [6]): 3.91 mmol/L
inhibition (A549 [7]): Dose-dependent-effect
Activity (A549 [8]): Active
IC50 (A549 [9]): 2.72 µM
Activity (A549 [10]): Active
Activity (A549 [11]): 24.7%
Activity (A549 [12]): Active
Activity (BEAS-2B): Toxic
Activity (A549 [13]): Dose-dependent-effect
Activity (Mitochondrial membrane): Active
Activity (A549 [14]): Active
Activity (A549 [15]): Active
Activity (A549 [16]): Active
Activity (A549 [17]): 34.5%
Activity (A549 [18]): 33.53%
Activity (A549 [19]): 4.54 mmol/L
Activity (A549 [20]): 4.38 mmol/L
IC50 (A549 [21]): ~10 µM
Activity (A549 [22]): 16.9%
inhibition (A549 [23]): Dose-dependent-effect
Activity (A549 [24]): Active
Activity (A549 [25]): inactive
Activity (A549 [26]): 21.6%
IC50 (MDA-MB-231): 19.2 µM

OC[C@H]1OC(O)C[C@@H](O)[C@@H]1O (some centres not stated)
Activity (A549 [27]): Active

CC(C)=CCC[C@]1(C)C=Cc2c(O)c3c(c(CC=C(C)C)c2O1)O[C@]12C(=C[C@@H]4C[C@H]1C(C)(C)O[C@@]2(C/C=C(/C)C(=O)O)C4=O)C3=O [GAMBOGIC ACID]
Activity (A549 [17]): 30.2%
Activity (A549 [18]): 30.67%
